In brackets after ≈: the same amount, converted by molar mass.
How the values were obtained:
Assay in all cases: Bacterial growth minimal inhibitory concentration (microdilution, cation-adjusted Mueller-Hinton Broth)
Type in all cases: cell-based
E. coli ATCC25922 = settings: quinolone-sensitive strain; for MIC: Escherichia coli, ATCC25922
Protocol: (§1) Minimal Inhibitory Concentrations (MICs; mg/L) were determined in cation-adjusted Mueller-Hinton Broth by a microdilution method following the description given in “Methods for Dilution Antimicrobial Susceptibility Tests for Bacteria that grow Aerobically”, Approved standard, 7th ed., Clinical and Laboratory Standards Institute (CLSI) Document M7-A7, Wayne, Pa., USA (2006).
(§2) All Example compounds were tested against several Gram-positive and Gram-negative bacteria. […] K. pneumoniae A-651 is a multiply-resistant strain (in particular quinolone-resistant), while E. coli ATCC25922 and P. aeruginosa ATCC27853 are quinolone-sensitive strains.

K. pneumoniae A-651 = settings: multiply-resistant strain (in particular quinolone-resistant); for MIC: Klebsiella pneumoniae, A651
Protocol: as §1, §2

P. aeruginosa ATCC27853 = settings: quinolone-sensitive strain; for MIC: Pseudomonas aeruginosa, ATCC27853
Protocol: as §1, §2

Row | SMILES | MIC (E. coli ATCC25922) [µg/mL] | MIC (K. pneumoniae A-651) [µg/mL] | MIC (P. aeruginosa ATCC27853) [µg/mL] | MIC for E. coli ATCC25922 (E. coli ATCC25922) [µg/mL] | MIC for K. Pneumoniae A-651 (K. pneumoniae A-651) [µg/mL] | MIC for P. aeruginosa ATCC27853 (P. aeruginosa ATCC27853) [µg/mL]
1 | C[C@@](CCN1Cc2cc(C#Cc3ccc(C4CN(C5COC5)C4)cc3)sc2C1=O)(C(=O)NO)S(C)(=O)=O [Example 26, (2R)—N-hydroxy-2-methyl-2-(methylsulfonyl)-4-(2-((4-(1-(oxetan-3-yl)azetidin-3-yl)phenyl)ethynyl)-6-oxo-4,6-dihydro-H-thieno[2,3-c]pyrrol-5-yl)butanamide] | – | – | – | 0.25 | 0.25 | 2
2 | C[C@@](CCN1Cc2cc(C#CC#CC3CN(C4CCOCC4)C3)sc2C1=O)(C(=O)NO)S(C)(=O)=O [Example 27, (2R)—N-hydroxy-2-methyl-2-(methylsulfonyl)-4-(6-oxo-2-((1-(tetrahydro-2H-pyran-4-yl)azetidin-3-yl)buta-1,3-diyn-1-yl)-4,6-dihydro-5H-thieno[2,3-c]pyrrol-5-yl)butanamide] | 0.125 (≈ 0.241 µM) | 0.25 (≈ 0.481 µM) | 1 (≈ 1.92 µM) | – | – | –
3 | C[C@@](CCN1Cc2cc(C#Cc3ccc(C4CN(C5COC5)C4)cc3)sc2C1=O)(C(=O)NO)S(C)(=O)=O [Example 29, (2R)—N-hydroxy-2-methyl-2-(methylsulfonyl)-4-(2-((4-(1-(oxetan-3-yl)azetidin-3-yl)phenyl)ethynyl)-6-oxo-4,6-dihydro-H-thieno[2,3-c]pyrrol-5-yl)butanamide] | – | – | – | 0.25 | 1 | 2
4 | C[C@@](CCN1Cc2cc(C#CC#C[C@H]3C[C@@H]3CN3CC(F)C3)sc2C1=O)(C(=O)NO)S(C)(=O)=O [Example 30, (2R)-4-(2-(((1S,2S)-2-((3-fluoroazetidin-1-yl)methyl)cyclopropyl)buta-1,3-diyn-1-yl)-6-oxo-4,6-dihydro-5H-thieno[2,3-c]pyrrol-5-yl)-N-hydroxy-2-methyl-2-(methylsulfonyl)butanamide] | 0.125 (≈ 0.246 µM) | 1 (≈ 1.97 µM) | 2 (≈ 3.94 µM) | – | – | –
5 | C[C@@](CCN1Cc2cc(C#Cc3ccc(CCO)cc3)ccc2C1=O)(C(=O)NO)S(C)(=O)=O [Example 33, (2R)—N-hydroxy-4-(5-((4-(2-hydroxyethyl)phenyl)ethynyl)-1-oxoisoindolin-2-yl)-2-methyl-2-(methylsulfonyl)butanamide] | 0.125 (≈ 0.266 µM) | 0.5 (≈ 1.06 µM) | 2 (≈ 4.25 µM) | – | – | –
6 | C[C@@](CCN1Cc2cc(C#CC#CC3CN(C(=O)OCCCO)C3)sc2C1=O)(C(=O)NO)S(C)(=O)=O [Example 34, 3-hydroxypropyl (2R)-3-((5-(4-(hydroxyamino)-3-methyl-3-(methylsulfonyl)-4-oxobutyl)-6-oxo-5,6-dihydro-4H-thieno[2,3-c]pyrrol-2-yl)buta-1,3-diyn-1-yl)azetidine-1-carboxylate] | – | – | – | 0.25 | 0.5 | 1
7 | CN1C[C@@H](C#CC#Cc2cc3c(s2)C(=O)N(CC[C@](C)(C(=O)NO)S(C)(=O)=O)C3)[C@@H]1CO [Example 35, (2R)—N-hydroxy-4-(2-(((2R,3R)-2-(hydroxymethyl)-1-methylazetidin-3-yl)buta-1,3-diyn-1-yl)-6-oxo-4,6-dihydro-5H-thieno[2,3-c]pyrrol-5-yl)-2-methyl-2-(methylsulfonyl)butanamide] | 0.5 (≈ 1.04 µM) | 2 (≈ 4.17 µM) | 1 (≈ 2.09 µM) | – | – | –
8 | CN1[C@@H](CO)C[C@@H]1C#CC#Cc1cc2c(s1)C(=O)N(CC[C@](C)(C(=O)NO)S(C)(=O)=O)C2 [Example 40, (2R)—N-hydroxy-4-(2-(((2R,4R)-4-(hydroxymethyl)-1-methylazetidin-2-yl)buta-1,3-diyn-1-yl)-6-oxo-4,6-dihydro-5H-thieno[2,3-c]pyrrol-5-yl)-2-methyl-2-(methylsulfonyl)butanamide] | 0.25 (≈ 0.521 µM) | 2 (≈ 4.17 µM) | 1 (≈ 2.09 µM) | – | – | –

The next lines start with the values.

Row | MIC (E. coli ATCC25922) [µg/mL] | MIC (K. pneumoniae A-651) [µg/mL] | MIC (P. aeruginosa ATCC27853) [µg/mL] | MIC for E. coli ATCC25922 (E. coli ATCC25922) [µg/mL] | MIC for K. Pneumoniae A-651 (K. pneumoniae A-651) [µg/mL] | MIC for P. aeruginosa ATCC27853 (P. aeruginosa ATCC27853) [µg/mL] | SMILES
9 | 0.063 (≈ 0.131 µM) | 0.25 (≈ 0.519 µM) | 1 (≈ 2.08 µM) | – | – | – | C[C@@](CCN1Cc2cc(C#CC#CC3CN(CCF)C3)sc2C1=O)(C(=O)NO)S(C)(=O)=O [Example 23, (2R)-4-(2-((1-(2-fluoroethyl)azetidin-3-yl)buta-1,3-diyn-1-yl)-6-oxo-4,6-dihydro-5H-thieno[2,3-c]pyrrol-5-yl)-N-hydroxy-2-methyl-2-(methylsulfonyl)butanamide]
10 | 0.25 (≈ 0.523 µM) | 0.5 (≈ 1.05 µM) | 1 (≈ 2.09 µM) | – | – | – | CC(C)N1CC(C#CC#Cc2cc3c(s2)C(=O)N(CC[C@](C)(C(=O)NO)S(C)(=O)=O)C3)C1 [Example 24, (R)—N-hydroxy-4-(2-((1-isopropylazetidin-3-yl)buta-1,3-diyn-1-yl)-6-oxo-4,6-dihydro-5H-thieno[2,3-c]pyrrol-5-yl)-2-methyl-2-(methylsulfonyl)butanamide]
11 | 1 (≈ 1.97 µM) | 1 (≈ 1.97 µM) | 1 (≈ 1.97 µM) | – | – | – | CC(C)(O)CN1CC(C#CC#Cc2cc3c(s2)C(=O)N(CC[C@](C)(C(=O)NO)S(C)(=O)=O)C3)C1 [Example 25, (2R)—N-hydroxy-4-(2-((1-(2-hydroxy-2-methylpropyl)azetidin-3-yl)buta-1,3-diyn-1-yl)-6-oxo-4,6-dihydro-5H-thieno[2,3-c]pyrrol-5-yl)-2-methyl-2-(methylsulfonyl)butanamide]
12 | 0.25 (≈ 0.494 µM) | 0.5 (≈ 0.989 µM) | 2 (≈ 3.96 µM) | – | – | – | C[C@@](CCN1Cc2cc(C#CC#CC3CN(CC4COC4)C3)sc2C1=O)(C(=O)NO)S(C)(=O)=O [Example 28, (2R)—N-hydroxy-2-methyl-2-(methylsulfonyl)-4-(2-((1-(oxetan-3-ylmethyl)azetidin-3-yl)buta-1,3-diyn-1-yl)-6-oxo-4,6-dihydro-5H-thieno[2,3-c]pyrrol-5-yl)butanamide]
13 | – | – | – | 0.5 | 0.5 | 1 | C[C@@](CCN1Cc2cc(C#CC#CC3CN([C@H]4C[C@@H](O)C4)C3)sc2C1=O)(C(=O)NO)S(C)(=O)=O [Example 31, (2R)—N-hydroxy-4-(2-((1-((1s,3s)-3-hydroxycyclobutyl)azetidin-3-yl)buta-1,3-diyn-1-yl)-6-oxo-4,6-dihydro-5H-thieno[2,3-c]pyrrol-5-yl)-2-methyl-2-(methylsulfonyl)butanamide]
14 | – | – | – | 0.25 | 0.5 | 1 | C[C@@](CCN1Cc2cc(C#CC#CC3CN(C4CC(O)C4)C3)sc2C1=O)(C(=O)NO)S(C)(=O)=O (stereo partly drawn) [Example 32, (2R)—N-hydroxy-4-(2-((1-((1r,3r)-3-hydroxycyclobutyl)azetidin-3-yl)buta-1,3-diyn-1-yl)-6-oxo-4,6-dihydro-5H-thieno[2,3-c]pyrrol-5-yl)-2-methyl-2-(methylsulfonyl)butanamide]
15 | 0.5 (≈ 1.01 µM) | 1 (≈ 2.03 µM) | 1 (≈ 2.03 µM) | – | – | – | CN1C[C@@H](C#CC#Cc2cc3c(s2)C(=O)N(CC[C@](C)(C(=O)NO)S(C)(=O)=O)C3)C[C@@H]1CO [Example 36, (2R)—N-hydroxy-4-(2-(((3R,5R)-5-(hydroxymethyl)-1-methylpyrrolidin-3-yl)buta-1,3-diyn-1-yl)-6-oxo-4,6-dihydro-5H-thieno[2,3-c]pyrrol-5-yl)-2-methyl-2-(methylsulfonyl)butanamide]
16 | 1 (≈ 1.92 µM) | 2 (≈ 3.83 µM) | 2 (≈ 3.83 µM) | – | – | – | C[C@@](CCN1Cc2cc(C#CC#CC3CN(CC4(O)COC4)C3)sc2C1=O)(C(=O)NO)S(C)(=O)=O [Example 39, (2R)—N-hydroxy-4-(2-((1-((3-hydroxyoxetan-3-yl)methyl)azetidin-3-yl)buta-1,3-diyn-1-yl)-6-oxo-4,6-dihydro-5H-thieno[2,3-c]pyrrol-5-yl)-2-methyl-2-(methylsulfonyl)butanamide]

From patent US20190031676A1, “ANTIBACTERIAL ANNULATED PYRROLIDIN-2-ONE DERIVATIVES” (priority 2015, published 2019)
